# Results reported in the supplement of paper PMC6965134.
# ± gives the standard deviation of the averaged measurements.
# Assay: TIMS collisional cross section (CCS, N2) of the lipid ion; higher = larger ion cross section
# Conditions: ionization mode: positive, one isomer drawn
# Procedure: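 Lipid extracts of human plasma (NIST SRM 1950), mouse liver and HeLa cells were separated by nanoflow C18 LC (30 min gradient, 60 °C) and analysed by TIMS-PASEF on a timsTOF Pro in positive ion mode. Ion mobility was calibrated with the Agilent tuning mix and converted to collisional cross sections (Mason–Schamp) in N2 drift gas. Lipids were identified by MS/MS (SimLipid) and manual curation. SMILES are LIPID MAPS representative structures for the annotated lipid.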
SMILES,TIMS collisional cross section (sample type: HeLa) [Å²],TIMS collisional cross section (sample type: plasma) [Å²],TIMS collisional cross section (sample type: Liver) [Å²]
CCCCCCCCCCCCC/C=C/C=C/C(=O)OC[C@@H](O)COP(=O)([O-])OCC[N+](C)(C)C (ion (formula + adduct): [C26H50NO7P+H] 1+),228.2,228.1 ± 0.42,–
CC(C)CCC[C@@H](C)[C@H]1CC[C@H]2C3=CC[C@H]4[C@](C)(C=O)[C@@H](O)CC[C@]4(C)[C@H]3CC[C@]12C (ion (formula + adduct): [C29H48O2+H] 1+),–,219.5,–
"CC(C)CCC[C@@H](C)[C@H]1CC[C@H]2[C@@H]3C(=O)C=C4C=CCC[C@]4(C)[C@H]3CC[C@]12C [3,5-cholestadien-7-one] (ion (formula + adduct): [C27H42O+H] 1+)",203.63 ± 0.75,203.1,–
"[C@]12(CC=C3C[C@@H](O)CC[C@]3(C)[C@@]1([H])CC[C@]1(C)[C@@]([H])([C@@](C)([H])CC[C@@H]3O[C@@]3(C)C)CC[C@@]21[H])[H] [24,25-epoxy-cholesterol] (ion (formula + adduct): [C27H44O2+H] 1+)",210.4,210.5,209.6
CC(C)C(=O)C[C@](C)(O)[C@H]1CC[C@H]2[C@@H]3C[C@H](O)[C@H]4C[C@@H](O)CC[C@]4(C)C3=CC[C@@]21C [24-northornasterol A] (ion (formula + adduct): [C26H42O4+H] 1+),–,207.8,–
C12CC[C@@]3([H])C(C)(C)[C@@H](O)CC[C@]3(C)C=1CC[C@]1(C)[C@@]([H])([C@@](C)([H])CC/C=C(\C)/C)CC[C@@]21C=O [32-oxolanosterol] (ion (formula + adduct): [C30H48O2+H] 1+),211.6,–,–
CCCCCCCCCCCCC/C=C/[C@@H](O)[C@H](CO)NC(=O)CCCCCCCCCCCCCCCCCCCCC [Cer d18:1_22:0@] (ion (formula + adduct): [C40H79NO3+H] 1+),274.3,–,274.9
CCCCCCCCCCCCC/C=C/[C@@H](O)[C@H](CO)NC(=O)CCCCCCCCCCCCCCCCCCCCCC [Cer d18:1_23:0@] (ion (formula + adduct): [C41H81NO3+H] 1+),276.9,–,277.5
CCCCCCCCCCCCC/C=C/[C@@H](O)[C@H](CO)NC(=O)CCCCCCCCCCCCCCCCCCCCCCC [Cer d18:1_24:0@] (ion (formula + adduct): [C42H83NO3+H] 1+),–,281.1,281.2
CCCCCCCC/C=C\CCCCCCCCCCCCCC(=O)N[C@@H](CO)[C@H](O)/C=C/CCCCCCCCCCCCC [Cer d18:1_24:1@] (ion (formula + adduct): [C42H81NO3+H] 1+),278.2,280.9 ± 3.8,283
CCCCCCCCCCCCC/C=C/[C@@H](O)[C@H](CO)NC(=O)CCCCCCCCCCCCCCCCCCCCCCCC [Cer d18:1_25:0@] (ion (formula + adduct): [C43H85NO3+H] 1+),–,–,284.1
CCCCCCCC/C=C\CCCCCCCCCCCCCCCC(=O)N[C@@H](CO)[C@H](O)/C=C/CCCCCCCCCCCCC [Cer d18:1_26:1@] (ion (formula + adduct): [C44H85NO3+H] 1+),284.9,–,289.4
CC(C)CCC[C@@H](C)[C@H]1CC[C@H]2[C@@H]3CC=C4C[C@@H](O)CC[C@]4(C)[C@H]3CC[C@]12C [Cholesterol] (ion (formula + adduct): [C27H46O+H] 1+),207.1,–,–
CC(C)(O)CCC(=O)[C@](C)(O)[C@H]1[C@H](O)C[C@@]2(C)[C@@H]3CC=C4[C@@H](C[C@@H](O)[C@@H](O)C4(C)C)[C@]3(C)C(=O)C[C@]12C [Cucurbitacin P] (ion (formula + adduct): [C30H48O7+H] 1+),–,–,231.3
CCCCCCCCCCCCCCCC(=O)O[C@@H](CO)COC(=O)CCCCCCCCCCCCC [DG 14:0_16:0_0:0] (ion (formula + adduct): [C33H64O5+NH4] 1+),252.4,–,252.7
CCCCCC/C=C\CCCCCCCC(=O)O[C@@H](CO)COC(=O)CCCCCCCCCCCCC [DG 14:0_16:1_0:0] (ion (formula + adduct): [C33H62O5+NH4] 1+),248.3,–,–
CCCCCCCC/C=C\CCCCCCCC(=O)O[C@@H](CO)COC(=O)CCCCCCCCCCCCC [DG 14:0_18:1_0:0] (ion (formula + adduct): [C35H66O5+NH4] 1+),–,255.9,–
CCCCC/C=C\C/C=C\CCCCCCCC(=O)O[C@@H](CO)COC(=O)CCCCCCCCCCCCC [DG 14:0_18:2_0:0] (ion (formula + adduct): [C35H64O5+NH4] 1+),–,–,252
CCCCCCCCCCCCCCCC(=O)OCC(CO)OC(=O)CCCCCCCCCCCCCCC (configuration not stated) [DG 16:0_16:0_0:0] (ion (formula + adduct): [C35H68O5+NH4] 1+),259,259 ± 0.42,258.8
CCCCCCCCCCCCCCCC(=O)OCC(CO)OC(=O)CCCCCCCCCCCCCCC (configuration not stated) [DG 16:0_16:0_0:0] (ion (formula + adduct): [C35H68O5+Na] 1+),–,253.8,–

# Continued, values first:
TIMS collisional cross section (sample type: HeLa) [Å²],TIMS collisional cross section (sample type: plasma) [Å²],TIMS collisional cross section (sample type: Liver) [Å²],SMILES
254.9,257,254.9,CCCCCC/C=C\CCCCCCCC(=O)O[C@@H](CO)COC(=O)CCCCCCCCCCCCCCC [DG 16:0_16:1_0:0] (ion (formula + adduct): [C35H66O5+NH4] 1+)
262.1 ± 0.42,–,–,CCCCCCCCCCCCCCCCC(=O)O[C@@H](CO)COC(=O)CCCCCCCCCCCCCCC [DG 16:0_17:0_0:0] (ion (formula + adduct): [C36H70O5+NH4] 1+)
–,–,259.8,CCCCC/C=C\C/C=C\CCCCCCCC(=O)O[C@@H](CO)COC(=O)CCCCCCCCCCCCCCC [DG 16:0_18:2_0:0] (ion (formula + adduct): [C37H68O5+NH4] 1+)
257.3,–,257.1,CC/C=C\C/C=C\C/C=C\CCCCCCCC(=O)O[C@@H](CO)COC(=O)CCCCCCCCCCCCCCC [DG 16:0_18:3_0:0] (ion (formula + adduct): [C37H66O5+NH4] 1+)
–,–,265.1,CCCCC/C=C\C/C=C\C/C=C\CCCCCCC(=O)O[C@@H](CO)COC(=O)CCCCCCCCCCCCCCC [DG 16:0_20:3_0:0] (ion (formula + adduct): [C39H70O5+H] 1+)
264.8,–,264.9,CCCCC/C=C\C/C=C\C/C=C\CCCCCCC(=O)O[C@@H](CO)COC(=O)CCCCCCCCCCCCCCC [DG 16:0_20:3_0:0] (ion (formula + adduct): [C39H70O5+NH4] 1+)
–,–,263.9,CCCCC/C=C\C/C=C\C/C=C\C/C=C\CCCC(=O)O[C@@H](CO)COC(=O)CCCCCCCCCCCCCCC [DG 16:0_20:4_0:0] (ion (formula + adduct): [C39H68O5+H] 1+)
263.4,263.6,263.8,CCCCC/C=C\C/C=C\C/C=C\C/C=C\CCCC(=O)O[C@@H](CO)COC(=O)CCCCCCCCCCCCCCC [DG 16:0_20:4_0:0] (ion (formula + adduct): [C39H68O5+NH4] 1+)
261.5,–,–,CC/C=C\C/C=C\C/C=C\C/C=C\C/C=C\CCCC(=O)O[C@@H](CO)COC(=O)CCCCCCCCCCCCCCC [DG 16:0_20:5_0:0] (ion (formula + adduct): [C39H66O5+NH4] 1+)
279.1,–,–,CCCCCCCCCCCCCCCCCCCCCC(=O)O[C@@H](CO)COC(=O)CCCCCCCCCCCCCCC [DG 16:0_22:0_0:0] (ion (formula + adduct): [C41H80O5+NH4] 1+)
276.3,–,–,CCCCCCCC/C=C\CCCCCCCCCCCC(=O)O[C@@H](CO)COC(=O)CCCCCCCCCCCCCCC [DG 16:0_22:1_0:0] (ion (formula + adduct): [C41H78O5+NH4] 1+)
271.2,–,270.8,CCCCC/C=C\C/C=C\C/C=C\C/C=C\CCCCCC(=O)O[C@@H](CO)COC(=O)CCCCCCCCCCCCCCC [DG 16:0_22:4_0:0] (ion (formula + adduct): [C41H72O5+NH4] 1+)
266.6,–,270,CC/C=C\C/C=C\C/C=C\C/C=C\C/C=C\CCCCCC(=O)O[C@@H](CO)COC(=O)CCCCCCCCCCCCCCC [DG 16:0_22:5_0:0] (ion (formula + adduct): [C41H70O5+NH4] 1+)
–,–,267.7,CC/C=C\C/C=C\C/C=C\C/C=C\C/C=C\C/C=C\CCC(=O)O[C@@H](CO)COC(=O)CCCCCCCCCCCCCCC [DG 16:0_22:6_0:0] (ion (formula + adduct): [C41H68O5+NH4] 1+)
249,–,–,CCCCCC/C=C\CCCCCCCC(=O)OC[C@H](CO)OC(=O)CCCCCCC/C=C\CCCCCC [DG 16:1_16:1_0:0] (ion (formula + adduct): [C35H64O5+NH4] 1+)
258.1,–,–,CCCCCC/C=C\CCCCCCCC(=O)OC[C@H](CO)OC(=O)CCCCCCC/C=C\CCCCCCCC [DG 16:1_18:1_0:0] (ion (formula + adduct): [C37H68O5+H] 1+)
